Assays:
[1] = system: Reconstructed Human Epidermis (RHE) keratinocytes; assay: MTT assay of keratinocyte vitality on the RHE; format: cell-based; conditions: MTT assay on RHE at 24 hour instant
Procedure: Keratinocyte vitality was ascertained using the MTT assay: MTT salt (3-(4,5-dimetil-tiaol-2-il)-2,5 diphenyltetrazolium bromide) may be reduced through the mitochondrial enzyme succinate-dehydrogenase found in living cells. The reduction product, formazan crystals, may be quantified by optic density at […] and is proportional to the number of living cells. The MTT assay was performed on the RHE at the 24 hour instant.

[2] = Transepidermal water loss (TEWL) after topical application in volunteers; format: in vivo, human; conditions: 5% ingredient applied topically, ten volunteers
Excerpt: The clinical efficiency of bio-compatible liquid crystals generated by cetearyl-olivate, sorbitan-olivate was clinically verified. Firstly, its skin biocompatibility was verified in a study on its effect on transepidermal water loss (TEWL) with respect to other lipidic compositions. TEWL is a convalidated method for assessing the skin permeability barrier function (Fluhr, 2006). Ten volunteers have applied topically identical concentrations (5%) of the following ingredients: cetearyl-olivate, sorbitan-olivate; cetearyl alcohol, cetearyl-glucoside and poliglyceril-3 methylglucose distearate. The results—see FIG. 4—have shown that the application of cetearyl-olivate, sorbitan-olivate reduced the increase of TEWL by 29% over control formulae (FIG. 2).

Row | Molecule | Cell vitality (%) [1] [%] | induced TEWL / water loss following application [2]
1 | Cn1c(=O)c2c(ncn2C)n(C)c1=O [Control (pure caffeine), caffeine] | 100 | –
2 | poliglyceril-3 methylglucose distearate | – | activate excessive water loss following application
